Data reported in patent US11298333B1, “Methods of reducing the risk of cardiovascular events in a subject” (Amarin Pharmaceuticals Ireland Limited, priority 2018, dated 2022).

Tested on: statin-treated patients with a history of atherosclerosis or diabetes
Assay: REDUCE-IT Example 2: recurrent and total ischemic events (Andersen-Gill, Wei-Lin-Weissfeld)
Type: in vivo, human
Description: The following study was a multi-center, placebo-controlled clinical trial the details of which are described above in Example 1, the REDUCE-IT design. […] Randomization was stratified by cardiovascular risk cohort (i.e., secondary or primary prevention), use of ezetimibe, and by geographic region.
The primary outcome for the study was total recurrent events consisting of the composite of cardiovascular death, nonfatal myocardial infarction, nonfatal stroke, coronary revascularization, or hospitalization for unstable angina. Recurrent event analyses were also performed for the key secondary endpoint, a composite of cardiovascular death, non-fatal myocardial infarction, or non-fatal stroke. For each of these composite endpoints, the effects of icosapent ethyl in the secondary and primary prevention strata were examined separately.
Demographic and baseline disease characteristics are presented using frequencies and percentages for categorical variables and medians with interquartile ranges for continuous variables. Between treatment group comparisons were derived using the chi-square test for categorical variables and Wilcoxon rank test for continuous variables. All clinical endpoint events used in the efficacy analyses were adjudicated by an independent Clinical Endpoint Committee (CEC) who were blinded to the treatment assignment. Since the primary efficacy endpoint was the time from randomization to the first occurrence of any component of the composite endpoint, and recurrence of such events within each patient is possible, a pre-specified analysis using a Cox proportional-hazard with the counting-process formulation of Andersen and Gill was performed to model the first and all recurrent cardiovascular events. Hazard ratios (HR) and corresponding 95% confidence intervals (CI) are reported from this model. In addition, as a marginal model and an extension of survival models based on the Cox proportional hazard model, the modified Wei-Lin-Weissfeld (WLW) method for analysis of recurrent events in the presence of deaths was carried out as a supportive analysis. In addition, as pre-specified, a recurrent event analysis using the Andersen-Gill and Wei-Lin-Weissfeld methods were carried out for the individual primary event components other than CV death. Though not pre-specified, additional recurrent event analyses were performed for the key secondary endpoint, which is a composite of CV death, non-fatal MI, or non-fatal stroke, and for the primary endpoint and the key secondary endpoint in the primary and secondary prevention strata to explore further the consistency of clinical benefit of icosapent ethyl. In subgroup analyses of the two cardiovascular risk strata (i.e., primary and secondary prevention), site-level discrepancies in cardiovascular risk group assignment occurring at entry and detected during the study (1.8%) were adjusted to conform with documented medical history data prior to randomization. All efficacy analyses were performed according to the intention-to-treat principle. All tests were based on a 2-sided nominal significance level of 5% with no adjustments for multiple comparisons.

[1] = without adjusting for stratification differences
[2] = without adjustment for stratification differences

CC/C=C\C/C=C\C/C=C\C/C=C\C/C=C\CCCC(=O)OCC [Icosapent Ethyl, eicosapentaenoic acid ethyl ester]
First occurrence of primary composite endpoint: HR vs placebo (Wei-Lin-Weissfeld model): 0.75 | Second occurrence of primary composite endpoint: HR vs placebo (Wei-Lin-Weissfeld model): 0.72 | Total key secondary endpoints: HR, primary prevention stratum (adjusted stratification): 0.71 | Total key secondary endpoints: HR, secondary prevention stratum (adjusted stratification): 0.70 | Total primary endpoint events: HR, primary prevention stratum (adjusted stratification): 0.79 | Total primary endpoint events: HR, secondary prevention stratum (adjusted stratification): 0.66 | Cardiovascular deaths prevented per 100 patients treated for five years (in vivo): 1 | Coronary revascularizations prevented per 100 patients treated for five years (in vivo): 8 | Episodes of unstable angina prevented per 100 patients treated for five years (in vivo): 2 | Myocardial infarctions prevented per 100 patients treated for five years (in vivo): 4 | Relative risk reduction in total events for the primary composite efficacy outcome (in vivo): 32% | Strokes prevented per 100 patients treated for five years (in vivo): 1 | Total key secondary endpoints: HR vs placebo (overall): 0.71 | Total primary endpoint events: HR, primary prevention stratum [1]: 0.86 | Total primary endpoint events: HR, secondary prevention stratum [1]: 0.65 | Total key secondary endpoint events: HR, primary prevention [2]: 0.78 | Total key secondary endpoint events: HR, secondary prevention stratum [2]: 0.69
